Measurements taken from patent publication EP4653431A1, “PYRAZOLE DERIVATIVE, AND PHARMACEUTICALLY ACCEPTABLE SALT, STEREOISOMER, PHARMACEUTICAL COMPOSITION AND USE THEREOF” (Starg (Wuhan) Pharmaceutical Technology Co., Ltd, priority 2023, dated 2024).
Counter-ions that a name gives are not always drawn. Like-named read-outs stand apart in the source and are kept apart here.

Assays:
OVCAR-3 cells = experiment: In vitro OVCAR-3 cell viability assay (CellTiter-Glo); type: cell-based; conditions: Homo sapiens, OVCAR-3, 168 h, 7 days incubation
Procedure: (§1) 1640 medium, fetal bovine serum, and penicillin/streptomycin antibiotics were purchased from Wisent. CellTiter-Glo (cell viability chemiluminescence assay reagent) was purchased from Promega. The OVCAR-3 cell line was purchased from Nanjing Cobioer Biosciences Co., Ltd. Envision multimode plate reader (PerkinElmer) was used.
OVCAR-3 cells were seeded into a white 384-well plate, with 40 µL of cell suspension containing 300 OVCAR-3 cells per well. The cell plate was incubated overnight in a CO2 incubator.
(§2) The test compound was serially diluted 5-fold using a multichannel pipette to the 8th concentration, i.e., from 2000 µM to 0.00512 µM. The experiment was set up with duplicate wells. 78 µL of culture medium was added to an intermediate plate, and 2 µL per well of the gradient-diluted compound was transferred to the corresponding position in the intermediate plate. After mixing, 10 µL per well of the mixture was transferred to the cell plate. The concentration range of the compound transferred to the cell plate was from 10 µM to 0.026 nM. The cell plate was incubated in a CO2 incubator for 7 days. Another cell plate was prepared, and the signal value was read on the day of compound addition to serve as the maximum value (Max in the equation below) for data analysis. 10 µL per well of CellTiter-Glo reagent was added to the cell plate, and the cell plate was incubated at room temperature for 10 minutes to stabilize the luminescence signal. The signal was read using the multimode plate reader.
10 µL per well of CellTiter-Glo reagent was added to the cell plate, and the cell plate was incubated at room temperature for 10 minutes to stabilize the luminescence signal. The signal was read using the multimode plate reader.
(§3) The raw data were converted to inhibition rates using the equation (Sample-Min)/(Max-Min)×100%. The IC50 value was obtained by fitting the data to a four-parameter curve (using log(inhibitor) vs. response -- Variable slope model in GraphPad Prism). Table 1 provides the inhibitory activity of the compounds of the present application against OVCAR-3 cell proliferation.

T-47D cells = experiment: In vitro T-47D cell viability assay (CellTiter-Glo); type: cell-based; conditions: Homo sapiens, T47D, 168 h, 7 days incubation
Procedure: as §1, with “T-47D” for “OVCAR-3”
T-47D cells were seeded into a white 384-well plate, with 40 µL of cell suspension containing 300 T-47D cells per well. The cell plate was incubated overnight in a CO2 incubator.
as §2, with “using the Envision multimode plate” for “using the multimode plate”
10 µL per well of CellTiter-Glo reagent was added to the cell plate, and the cell plate was incubated at room temperature for 10 minutes to stabilize the luminescence signal. The signal was read using the Envision multimode plate reader.
as §3, with “T-47D” for “OVCAR-3”

CDK1/cyclin B1 = biological target: T1, CDK1/cyclin B1 (Homo sapiens, UniProt P06493); experiment: In vitro CDK1/cyclin B1 enzyme activity assay (TR-FRET); type: biochemical
T1 construct: purchased Carna Biosciences
T1 sequence (P06493 whole entry): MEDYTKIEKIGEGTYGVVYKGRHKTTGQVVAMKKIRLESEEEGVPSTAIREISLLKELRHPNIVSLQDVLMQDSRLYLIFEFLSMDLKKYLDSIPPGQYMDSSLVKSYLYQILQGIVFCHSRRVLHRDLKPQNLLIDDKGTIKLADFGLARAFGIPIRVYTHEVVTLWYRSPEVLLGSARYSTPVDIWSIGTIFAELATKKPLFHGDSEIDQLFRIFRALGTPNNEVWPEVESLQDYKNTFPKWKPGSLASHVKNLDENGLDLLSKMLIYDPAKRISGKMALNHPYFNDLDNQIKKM
T1 sequence (P14635 whole entry partner): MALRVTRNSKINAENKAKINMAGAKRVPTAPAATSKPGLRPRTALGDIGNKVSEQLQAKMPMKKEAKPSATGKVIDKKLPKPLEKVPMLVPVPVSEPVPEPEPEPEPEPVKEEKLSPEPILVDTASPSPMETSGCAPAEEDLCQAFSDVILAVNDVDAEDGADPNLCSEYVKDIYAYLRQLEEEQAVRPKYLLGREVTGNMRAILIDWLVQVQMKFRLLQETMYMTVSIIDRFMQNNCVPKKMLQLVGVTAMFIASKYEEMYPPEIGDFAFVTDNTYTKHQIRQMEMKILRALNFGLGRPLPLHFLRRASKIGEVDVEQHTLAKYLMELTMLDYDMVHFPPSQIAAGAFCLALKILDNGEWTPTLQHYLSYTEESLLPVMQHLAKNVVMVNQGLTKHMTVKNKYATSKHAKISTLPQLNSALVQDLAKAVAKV
Procedure: CDK1/cyclin B1 was purchased from Carna Biosciences. Ulight-4E-BP1 peptide, Eu-anti-phospho-tyrosine antibody, and 1X detection buffer were purchased from PerkinElmer. High-purity ATP was purchased from Promega. EDTA was purchased from Sigma. Nivo multimode plate reader (PerkinElmer) was used.
Preparation of Kinase Buffer Solution: The kinase buffer solution consisted 50 mM HEPES, 1 mM EDTA, 10 mM MgCl2, and 0.01% Brij-35, with pH of 7.4.
(§4) The stop solution was prepared by mixing 100 µL of 1 M EDTA stock solution with […] of 1X detection buffer solution and 1725 µL of distilled water.
The enzyme, Ulight-4E-BP1 peptide, ATP, and the inhibitor were diluted using the kinase buffer solution.
The Eu-anti-phospho-tyrosine antibody was diluted to a concentration of 8 nM/L using the detection buffer solution.
The final concentration of DMSO was 4%, and the experiment was set up with duplicate wells. […] The reaction system was incubated at 25 °C for 60 minutes. After the reaction, 5 µL of the stop solution was added to each well, and further reacted at 25 °C for 5 minutes to terminate the reaction. Then 5 µL of Eu-anti-phospho-tyrosine antibody dilution was added to each well, and the mixture was incubated at 25 °C for 60 minutes.
The IC50 value was obtained by fitting the data to a four-parameter curve (using log(inhibitor) vs. response -- Variable slope model in GraphPad Prism).

[1] = Pharmacokinetic study, oral and intravenous administration in mice; parameters: species or system ICR mice; conditions: mouse, in vivo, ICR male mice; for AUC(0-t): read-out: Area under plasma concentration-time curve AUC0-last
Procedure: This study used ICR male mice as test animals. The plasma concentrations of the test compounds and the reference compound in mice were quantitatively determined at different time points using the LC-MS/MS method following intravenous injection or oral administration to evaluate the pharmacokinetic characteristics of the test compounds in mice.
ICR mice (male, 20-30 g, 6-8 weeks old, Beijing Charles River).
A clear solution of the test compound was administered to ICR mice (fasted overnight or fed) via tail vein injection or oral gavage. For intravenous injection, blood samples (50 µL) were collected via cheek puncture at 0 h (pre-dose) and at 0.083, 0.25, 0.5, 1, 2, 4, 6, 8, and 24 h post-dose into anticoagulant tubes containing sodium heparin. The mixtures were thoroughly vortexed at 4 °C and centrifuged at 6000 rpm for 3 minutes. For oral gavage, blood samples were collected via cheek puncture at 0 h (pre-dose) and at 0.083, 0.25, 1, 2, 4, 6, 8, and 24 h post-dose into anticoagulant tubes containing sodium heparin. The mixtures were vortexed thoroughly, and centrifuged at 6000 rpm for 3 minutes. Plasma drug concentrations were determined using the LC-MS/MS method. Pharmacokinetic parameters were calculated using Phoenix WinNonlin 8.2.0 pharmacokinetic software with a non-compartmental model and linear-logarithmic trapezoidal rule.

CDK2/cyclin E1 = biological target: T2, CDK2/cyclin E1 (Homo sapiens, UniProt P24941); experiment: In vitro CDK2/cyclinE enzyme activity assay (TR-FRET); type: biochemical; conditions: CDK2/cyclin E1, 1 mM ATP, 120 min at 25 °C
T2 construct: purchased SignalChem
Procedure: CDK2/cyclin E1 was purchased from SignalChem. Ulight-4E-BP1 peptide, Eu-anti-phospho-tyrosine antibody, and 1X detection buffer solution were purchased from PerkinElmer. High-purity adenosine triphosphate (ATP) was purchased from Promega. Ethylenediaminetetraacetic acid (EDTA) was purchased from Sigma. Nivo multimode plate reader (PerkinElmer) was used.
Preparation of Kinase Buffer Solution: The kinase buffer solution consisted 50 mM HEPES, 1 mM EDTA, 10 mM MgCl2, and 0.01% Brij-35, with pH of 7.4. 2.38 g HEPES, 58 mg EDTA, 406 mg MgCl2, and 20 mg Brij-35 were added to 200 mL buffer, and the pH was adjusted to 7.4.
as §4
The enzyme, Ulight-4E-BP1 peptide, ATP, and the inhibitor were diluted using the kinase buffer solution. The Eu-anti-phospho-tyrosine antibody was diluted to a concentration of 8 nM/L using the detection buffer solution. The test compound was serially diluted 5-fold using a multichannel pipette to the 8th concentration, i.e., from 4 µM to 0.0512 nM. The final concentration of DMSO was 4%, and the experiment was set up with duplicate wells. 2.5 µL of each gradient concentration of the inhibitor, 5 µL of CDK2/cyclin E1 enzyme (10 ng), and 2.5 µL of a mixture of substrate and ATP (4 mM ATP, 100 nM Ulight-4E-BP1 peptide) were added to a microplate, resulting in a final concentration gradient of the compound from 1 µM to 0.0128 nM, with final ATP and substrate concentrations of 1 mM and 25 nM, respectively. The reaction system was incubated at 25 °C for 120 minutes. After the reaction, 5 µL of the stop solution was added to each well, and further reacted at 25 °C for 5 minutes to terminate the reaction. Then 5 µL of Eu-anti-phospho-tyrosine antibody dilution was added to each well, and the mixture was reacted at 25 °C for 60 minutes. Data were collected using the PerkinElmer Nivo multimode plate reader in TR-FRET mode (excitation wavelength: 320 nm; emission wavelengths: 615 nm and 665 nm).
The raw data were converted to inhibition rates according to the equation (Sample-Min)/(Max-Min)×100%. The IC50 value was obtained by fitting the data to a four-parameter curve (using log(inhibitor) vs. response -- Variable slope model in GraphPad Prism).

[2] = CDK1/cyclin B1, 1 mM ATP, 60 min at 25 °C, Table 1, read-out: CDK1 IC50
[3] = exact values stated in the text below Table 1, read-out: IC50 against CDK1

In the case of `COCc1cc(C(=O)Nc2cc([C@H]3CC[C@@H](OC(=O)NC(C)C)C3)[nH]n2)n(C)n1` [PF-07104091, reference compound], the IC50 (OVCAR-3 cells) is reported as 172 nM, the IC50 (T-47D cells) is reported as 377 nM and the IC50 (CDK1/cyclin B1; [2]) is reported as 521 nM. The Vd ([1]; intravenous administration, 5 mg/Kg, read-out: Apparent volume of distribution Vdss) was 11.8 L/kg, the AUC(0-t) ([1]; intravenous administration, 5 mg/Kg) was 1640 ng·h/mL and the clearance ([1]; intravenous administration, 5 mg/Kg, read-out: Clearance CL) was 50.3 mL/min/kg. It also gave a half-life ([1]; intravenous administration, 5 mg/Kg, read-out: Half-life T1/2 (converted)) of 161 min, a bioavailability ([1]; oral 30 mg/Kg vs intravenous 5 mg/Kg, read-out: Bioavailability F) of 76.2% and an AUC(0-t) ([1]; oral administration, 30 mg/Kg) of 7520 ng·h/mL. The Cmax ([1]; oral administration, 30 mg/Kg, read-out: Peak concentration Cmax) was 6320 ng/mL and the Tmax ([1]; oral administration, 30 mg/Kg, read-out: Time to peak Tmax) was 15 min.

For `C=NOCc1nn2ccnc(Nc3cc([C@H]4CC[C@@H](OC(=O)NC(C)C)C4)[nH]n3)c2c1F` [Compound 4], the IC50 (OVCAR-3 cells) was 75 nM, the IC50 (CDK2/cyclin E1) was 7.6 nM and the IC50 (T-47D cells) was 239 nM. For the same molecule, the IC50 (CDK1/cyclin B1; [2]) was over 1000 nM.

For `CONCc1nn2ccnc(Nc3cc([C@H]4CC[C@@H](OC(=O)NC(C)C)C4)[nH]n3)c2c1C` [Formate salt of compound 1], the IC50 (OVCAR-3 cells) was 90 nM, the IC50 (CDK2/cyclin E1) was 3.8 nM and the IC50 (T-47D cells) was 293 nM. The IC50 (CDK1/cyclin B1; [2]) was over 1000 nM and the IC50 (CDK1/cyclin B1; [3]) was 1910 nM.

Molecule `CNOCc1nn2ccnc(Nc3cc([C@H]4CC[C@@H](OC(=O)NC(C)C)C4)[nH]n3)c2c1C` [Hydrochloride salt of compound 3] has an IC50 (OVCAR-3 cells) of 187 nM, an IC50 (CDK2/cyclin E1) of 4.2 nM and an IC50 (T-47D cells) of 383 nM. It also gave an IC50 (CDK1/cyclin B1; [2]) of over 1000 nM and an IC50 (CDK1/cyclin B1; [3]) of 1350 nM.

`CNOCc1nn2ccnc(Nc3cc([C@H]4CC[C@@H](OC(=O)NC(C)C)C4)[nH]n3)c2c1F` [Hydrochloride salt of Compound 7] showed an IC50 (OVCAR-3 cells) of 140 nM, an IC50 (CDK2/cyclin E1) of 9.5 nM and an IC50 (T-47D cells) of 492 nM. The IC50 (CDK1/cyclin B1; [2]) was over 1000 nM and the IC50 (CDK1/cyclin B1; [3]) was over 10000 nM.
